Data from article PMC9964746, “Mechanism of Action and Structure–Activity Relationships of Tetracyclic Small Molecules Acting as Universal Positive Allosteric Modulators of the Cholecystokinin Receptor” (Membranes, 2023).
“And” between values parts separate entries of the source, which are not always exact repeats. Identical values can stand only once.

Legend:
Assay type in all cases: cell-based
[1] = biological target: T1, vasopressin-2 receptor (AVP2R) (Homo sapiens, UniProt P30518); test: AVP2R cAMP HTRF accumulation assay; conditions: for AVP2R PAM (cAMP) Score (activity score = normalized Emax × pEC50): PAM format
T1 construct: expressed in transfected cells; host or cells: CHO-K1 (PAM format); HEK-293 (agonist format)
T1 sequence (P30518 whole entry): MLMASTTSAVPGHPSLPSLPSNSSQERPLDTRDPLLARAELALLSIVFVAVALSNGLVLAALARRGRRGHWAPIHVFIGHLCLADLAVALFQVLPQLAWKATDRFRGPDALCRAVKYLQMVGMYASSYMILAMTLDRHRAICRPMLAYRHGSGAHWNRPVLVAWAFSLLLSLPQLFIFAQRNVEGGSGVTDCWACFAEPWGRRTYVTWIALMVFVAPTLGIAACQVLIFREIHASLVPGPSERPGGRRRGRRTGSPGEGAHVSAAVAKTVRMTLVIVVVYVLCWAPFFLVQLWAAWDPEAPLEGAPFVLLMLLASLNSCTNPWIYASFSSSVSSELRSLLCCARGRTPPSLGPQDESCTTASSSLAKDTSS
Outline: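 Readout is HTRF cAMP detection (30 min, room temperature) following 30 min compound exposure with vasopressin stimulation, using HEK-293 cells for agonist mode and CHO-K1 cells for PAM mode, both overexpressing AVP2R, in IBMX-containing HBSS/HEPES buffer. Curves: 16 points, 2-fold steps, duplicate, ≥2 experiments.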

[2] = biological target: T2, CCK1R (Homo sapiens, UniProt P32238); test: IP-One accumulation TR-FRET assay, PAM format, HEK-293 CCK1R cells; parameters: expressed in transfected cells; host or cells: HEK-293; conditions: for Emax: HEK293; for EC50: PAM format with EC20 CCK
T2 sequence (P32238 1-428): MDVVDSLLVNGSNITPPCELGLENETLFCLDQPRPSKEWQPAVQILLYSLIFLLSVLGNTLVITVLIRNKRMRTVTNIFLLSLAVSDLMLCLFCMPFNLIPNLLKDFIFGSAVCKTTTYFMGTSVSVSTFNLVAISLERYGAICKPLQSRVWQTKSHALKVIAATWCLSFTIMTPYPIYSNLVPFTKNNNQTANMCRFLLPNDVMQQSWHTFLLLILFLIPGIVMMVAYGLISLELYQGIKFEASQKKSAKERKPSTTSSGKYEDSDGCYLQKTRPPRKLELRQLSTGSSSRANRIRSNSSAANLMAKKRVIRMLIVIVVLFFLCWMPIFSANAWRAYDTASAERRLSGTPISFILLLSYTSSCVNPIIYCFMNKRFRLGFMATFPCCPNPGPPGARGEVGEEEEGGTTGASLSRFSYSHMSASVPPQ
Outline: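 HEK-293 cells overexpressing CCK1R were plated overnight, then given compounds (top 50 µM, 16-point 2-fold) for 30 min at 37 °C. CCK stimulator with 50 mM LiCl (PAM format) or DMSO (agonist format) followed for 1 h. IP-One was read by TR-FRET; activity score = CCK-normalized Emax × pEC50.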

[3] = tested on: parental CHO cells; test: Intracellular calcium assay in parental CHO cells; conditions: compound alone, up to 20 µM
Procedure: Biological activity was quantified in the CHO cell lines described above using intracellular calcium assays that were performed, as previously described, using Fura-8-AM (AAT Bioquest, Pleasonton, CA, USA). Full agonist dose–response curves were performed along with determination of maximal responses to 0.1 mM ATP, targeting an endogenous receptor present on the parental cells. Concentration–response curves of peak intracellular calcium responses were analyzed and plotted as percentages of maximal responses using non-linear regression analysis in Prism 9.1 (GraphPad).

[4] = CHO-K1 AVP2R cells, PAM format with vasopressin, original hits: agonist and PAM data combined, average ± SD
[5] = HEK-293 CCK1R cells, PAM format, relative to CCK control, average ± SD
[6] = HEK-293 CCK1R cells, PAM format
[7] = HEK-293 CCK1R cells, average ± SD

| Emax [1, 4] [%] | CCK1R PAM (IP-One) Score (activity score = normalized Emax × pEC50) ([2]; HEK-293 CCK1R cells, PAM format, listed as hit 6) | Structure (SMILES) | AVP2R PAM (cAMP) Score (activity score = normalized Emax × pEC50) ([1]; CHO-K1 AVP2R cells) | EC50 [1, 4] [µM] | Emax [2, 5] [%] | CCK1R PAM (IP-One) Score (activity score = normalized Emax × pEC50) [2, 6] | EC50 [2, 7] [µM] | Agonist activity at parental CHO cells (intracellular calcium) [3] | Emax ([1]; CHO-K1, CHO-K1 AVP2R cells, PAM format with vasopressin, original hits: agonist and PAM data combined, average ± SD) [%] | AVP2R PAM (cAMP) Emax [1, 4] [%] | Log(Rmax/R50) ([2]; CCK1R IP-One PAM assay) | CCK1R PAM (IP-One) Emax [2, 5] [%] | CCK1R PAM (IP-One) Score (activity score = normalized Emax × pEC50) ([2]; HEK-293 CCK1R cells, PAM format, listed as hit 1) | AUC relative to AUC of endogenous agonist CCK ([2]; from activity scores, CCK1R IP-One) |
| --- | --- | --- | --- | --- | --- | --- | --- | --- | --- | --- | --- | --- | --- | --- |
| 73 ± 16 | 1.7 | CCCc1nc2oc3c(NCCCN(C)C)ncnc3c2c2c1CCCC2 [CMP-28] | 3.53 | 15 ± 13.6 | 35 ± 13 | 1.66 | 9.5 ± 3.5 | no significant endogenous agonist activity |  |  |  |  |  |  |
|  |  | CCN(CC)CCNc1ncnc2c1sc1nc(N3CCOCC3)c3c(c12)CCCC3 [CMP-1] | 1.0 and 1.02 | 12 ± 7.1 | 60 | 2.94 | 12.8 ± 4.6 | no significant endogenous agonist activity | 21 | 20.7 ± 9.8 | 4.7 | 63 ± 18 | 2.9 | approximately 29% |
